Measured values published in patent US20080153908A1, “Method of Treating Mucin Deficiency with an Active Pharmaceutical and Related Composition” (priority 2006, published 2008).

What was measured:
rat colon cells = conditions: isolated vascularly perfused rat colon; cited from earlier work
colonic mucin production = conditions: about 0.1 millimolar sodium butyrate; tissue harvested from colonic cancer patients; cited from earlier work
[1] = test system: mucin content of tear film; assay: Stimulation of mucin production: tear film mucin content in patients with mucin deficiency; format: in vivo, human; conditions: 0.5 wt. % solution in artificial tear solution, four-times a day for four days; control receives artificial tear solution
Experimental: A 0.5 wt. % solution of sodium butyrate in artificial tear solution is administered to one of a […] that suffer from mucin deficiency. The patients receiving butyrate drops belong to the study group. The patients in the control group receive artificial tear solution. Both groups receive treatment four-times a day for four days. Following treatment, tear film samples are collected and tested to quantify mucin content.

| Compound | stimulation of mucin secretion of rat colon cells (rat colon cells) | increase in colonic mucin production compared to a control group (colonic mucin production) | concentration of mucin in tear film samples versus control group [1] |
| --- | --- | --- | --- |
| CC(=O)O [acetate] | can stimulate the mucin secretion |  |  |
| CCC(=O)O [propionate] | can stimulate the mucin secretion |  |  |
| CCCC(=O)[O-].[Na+] [sodium butyrate] |  | almost five fold increase | higher concentration of mucin |
